Patent publication US20240042424A1, “CITY POLLUTION ENVIRONMENT SIMULATION APPARATUS” (BASF SE, priority 2017, published 2024)

Key:
Assay type in all cases: physicochemical
[1] = Sebum oxidation products by GC/MS after exposure in pollution test chamber (dry film method); settings: for change of sebum component in GC/MS chromatogram: upon UVA exposure
Method: (§1) A) Stock solutions and preparation: • Stock solution squalene: 1 g of squalene was dissolved in 100 ml ethanol solvent • Stock solution sebum: 1 g of synthetic sebum (e.g. Synthetic Sebum 09D, available from WFK Testgewebe GmbH) was dissolved in 100 ml ethanol solvent using a water bath 15 minutes under 40° C. heat 1 ml of the respective stock solution was added at the center of large petri dishes (100 mm diameter×17 mm height) using an automatic pipette. After evaporating the ethanol solvent in a high ventilated fume hood for 10 mins, the petri dishes were coated with one uniform layer of squalene, respectively sebum, evenly distributed at the bottom of the petri dish. In total 16 samples were prepared, 8 of each respective batch, meaning 8 with squalene coating (batch 1) and 8 with sebum coating (batch 2). The side walls of the test petri dish samples were wrapped with plastic band seals in order to get them vertically hooked in a position facing the UVA lamps located on sides in the pollution test chamber. Four coated petri dishes, two with squalene and two with sebum, were stored in a fridge at 4° C. for control purposes, due to the autoxidation of squalene.
(§2) For each batch, 2 samples (in total 4 samples per mode) were respectively exposed to the 3 different pollution modes (i to iii): • i. During the “UVA only” (“uv”) mode, the samples were exposed to continuous 340 nm UV irradiation of the 8 UVA lamps for 6 hours. • ii. […]
(§3) 3.3.1 Squalene and Sebum oxidation products quantification with GC/MS • Equipment: Agilent 7890B/5977A GC-MS system • Dissolution solvent: Ethanol • column: DB-1MS • Flow Rate: 2 ml/min • Column Temperature: 40° C. […] Malondialdehyde (MDA) Quantification with Spectrophotometer (MDA-TBA Detection) • UV-vis scan between 200 and 800 nm, • Colorimetry: UV detection for MDA-TBA complex at 532 nm • Standard curve preparation: As precursor of MDA, 1,1,3,3-tetraethoxypropane (TEP) was used. […]

[2] = Squalene oxidation products by GC/MS after exposure in pollution test chamber (dry film method); settings: solvent ethanol
Method: as §1, §2, §3

[3] = MDA quantification/TBA test for squalene samples after pollution exposure
Method: as §1, §2, §3

| change of sebum component in GC/MS chromatogram [1] | squalene oxidization products (GC/MS) ([2]; UVA irradiation only (UV-Mode), UVA for 6 h) | squalene oxidization products (GC/MS) ([2]; exhaust gas only (p-Mode), 3x30 mins diesel engine exhaust gas) | decrease of squalene from sebum (GC/MS) ([1]; 2 h UVA exposure and one-time 30 min exhaust gas, solvent Ethanol) | MDA percentage of initial mole of squalene ([3]; UVA irradiation only (uv mode)) | MDA percentage of initial mole of squalene ([3]; combined exhaust gas and UV irradiation (puv mode)) | MDA percentage of initial mole of squalene ([3]; exhaust gas only (p mode)) | Compound | squalene oxidization products (GC/MS) ([2]; UVA and exhaust gas (PUV-Mode), UVA 6 h, 3x30 mins diesel engine exhaust gas) |
| --- | --- | --- | --- | --- | --- | --- | --- | --- |
| increase | – | – | – | – | – | – | CC(C)CCC[C@@H](C)[C@H]1CC[C@H]2[C@@H]3CC=C4C[C@@H](O)CC[C@]4(C)[C@H]3CC[C@]12C [cholesterol] | – |
| increase | – | – | – | – | – | – | CCCCCCCCCCCCCCCC(=O)O [palmitic acid] | – |
| – | highest content of oxidation products | squalene isomers (SQ isomers) | 93% | 14.0% | 13.6% | 13.5% | CC(C)=CCC/C(C)=C/CC/C(C)=C/CC/C=C(\C)CC/C=C(\C)CCC=C(C)C [squalene] | a mix of pollution-induced squalene isomers (SQ isomers) as well as irradiation-induced oxidation products (SQOPs) |
